Measurements from patent publication US10350206B2, “Benzyl substituted indazoles as BUB1 inhibitors” (Bayer Pharma Aktiengesellschaft, priority 2014, dated 2019).
Read-outs that look alike come from different tables or passages of the source.

Columns and labels:
[1] = system: HeLa human cervical tumor cells; experiment: Proliferation Assay (HeLa+Paclitaxel); format: cell-based; settings: 3 nM paclitaxel, test substance 92 hours; read-out: Biological Assay 3: Proliferation Assay (HeLa + Paclitaxel) IC50
[2] = target: T1, catalytic domain of human Bub1 (amino acids 704-1085) (Homo sapiens, UniProt O43683); experiment: Equilibrium probe competition assay (TR-FRET kinase binding assay); settings: read-out: Assay 5 IC50
T1 construct: catalytic domain of human Bub1 (amino acids 704-1085); His6 (N); made in house; host or cells: Hi5 insect cells
Protocol: The half-life of prodrugs (Table 3) poses a challenge for the verification of their biological activity. The Bub1 enzymatic activity assay (as per Biological Assay 1.0 infra) requires a minimum reaction time of 60 minutes in order to be able to assess the inhibitory activity of the compounds. During this time typically 20% to 60% of the prodrugs have been already converted to their corresponding drugs at the pH of 7.5 at which the assay is performed. Ideally one would perform the biological assay at a pH at which the prodrug is stable (e.g. pH 4). […] Alternatively, an assay requiring shorter incubation times would better estimate the binding affinities of the prodrugs. […] Extrapolating the stability data from Tables 3 and 4, one would expect at this time point most of the compound present in the test solution to be the prodrug.
FIGS. 1 and 2 combine the results from Biological Assay 5 with those from Biological Assay 6. The binding affinities over time of drug and prodrug pairs are shown as pIC50 together with the prodrug stability, and the pIC50 to be expected if only the drug present in the sample was responsible for the activity in the assay. Extrapolating the pIC50 from these graphs to time 0 (at which 100% of prodrug is present in the sample), the actual affinity of the drug and prodrug can be inferred. Secondly, looking at the differences between expected and real pIC50 an estimate can be made about the contribution of the prodrug to the observed activity.
Biological Assay 5.0: Equilibrium Probe Competition Assay:
Bub1 binding affinity of compounds described in the present invention were quantified using a time-resolved fluorescence energy transfer (TR-FRET) kinase binding assay which measures displacement of the synthetic fluorescent probe 5-[({2-[2-({2-[1-(4-ethoxy-2,6-difluorobenzyl)-1H-indazol-3-yl]-4-(pyridin-4-ylamino)pyrimidin-5-yl}oxy)ethoxy]ethyl}carbamothioyl)amino]-2-(6-hydroxy-3-oxo-3H-xanthen-9-yl)benzoic acid (6-5-1) by the (recombinant) catalytic domain of human Bub1 (amino acids 704-1085). The enzyme was expressed in Hi5 insect cells with N-terminal 6×His/AviTag® sequences, purified by affinity- (Ni-NTA) and size exclusion chromatography and site-specific biotinylated ex-vivo using a commercially available kit (Avidity).
In a typical assay 11 different concentrations of each compound (0.1 nM, 0.33 nM, 1.1 nM, 3.8 nM, 13 nM, 44 nM, 0.15 μM, 0.51 μM, 1.7 μM, 5.9 μM and 20 μM) were tested in duplicate within the same microtiter plate. To this end, 100-fold concentrated compound solutions (in DMSO) were made by serial dilution (1:3.4) of freshly prepared 2 mM stocks in a clear low volume 384-well source microtiter plate (Greiner Bio-One, Frickenhausen, Germany), from which 50 nl of compounds were transferred into a black low volume test microtiter plate from the same supplier. Subsequently 2 μL of a solution containing biotinylated Bub1 (the final concentration of Bub1 was adjusted depending on the activity of the enzyme lot in order to be within the linear dynamic range of the assay: typically ˜[…] were used) and 1 nM Streptavidin Terbium Cryptate (Cisbio, No. 610SATLB) in aqueous assay buffer [50 mM Tris/HCl pH 7.5, 200 mM potassium chloride (KCl), 1.0 mM dithiothreitol (DTT), 0.1 mM sodium ortho-vanadate, 1% (v/v) glycerol, 0.01% (w/v) bovine serum albumine (BSA), 0.005% (v/v) Triton X-100 (Sigma), were added to the compounds in the test plate and the mixture was incubated for 15 min at 22° C. to allow pre-equilibration of the putative enzyme-inhibitor complexes before the start of the probe competition reaction, which was initiated by the addition of 3 μL 1.67-fold concentrated solution (in assay buffer) of 6-5-1 (final concentration: 1.5 nM). The resulting mixture (5 μL final volume) was incubated at 22° C. during 0, 15, 30, 60, 120, 240 and 1440 min. […]

SMILES | IC50 [1] | IC50 ([2]; Time 15 min) | IC50 ([2]; Time 30 min) | IC50 ([2]; Time 60 min) | IC50 ([2]; Time 90 min) | IC50 ([2]; Time 120 min) | IC50 ([2]; Time 240 min) | IC50 ([2]; Time 1440 min)
COc1cnc(-c2nn(Cc3c(F)cc(OCCO)cc3F)c3ccccc23)nc1Nc1ccnc(C)c1 [Example 2-1-2, 2-{3,5-difluoro-4-[(3-{5-methoxy-4-[(2-methylpyridin-4-yl)amino]pyrimidin-2-yl}-1H-indazol-1-yl)methyl]phenoxy}ethanol] | 350 nM | 1.6 nM | 3.5 nM | 2.2 nM | 3.2 nM | 2.9 nM | 4 nM | 2.4 nM
COc1cnccc1Nc1nc(-c2nn(Cc3c(F)cc(OCCO)cc3F)c3ccccc23)ncc1OC [Example 2-1-3, 2-{3,5-difluoro-4-[(3-{5-methoxy-4-[(3-methoxypyridin-4-yl)amino]pyrimidin-2-yl}-1H-indazol-1-yl)methyl]phenoxy}ethanol] | 63 nM | 1.7 nM | 1.3 nM | 0.9 nM | 0.54 nM | 0.49 nM | 0.31 nM | 0.2 nM
